Laboratory results from ChEMBL document CHEMBL5543140 (J Med Chem, 2024).
Activity calls are given as the source filed them. The calls are words filed in the database; no cut-off is given here.

Tests used:
[1] = Brain to plasma ratio in male Sprague-Dawley rat at 1 mg/kg, iv measured upto 8 hrs by LC-MS/MS analysis; format: ADME, organism-based; settings: brain and plasma, read-out: BPR
[2] = AUCinf in Wistar rat plasma at 5 mg/kg, po measured upto 48 hrs; format: ADME, organism-based
[3] = target: 5-hydroxytryptamine receptor 1A (Homo sapiens, UniProt P08908); test: Displacement of [3H]-8-OH-DPAT from 5-HT1A receptor (unknown origin) assessed as inhibition binding
[4] = test system: Mus musculus; test: Psychedelic effect in C57BL/6J mouse assessed as induction of 5-HT2A receptor dependent head-twitch responses by visual observation at 1 to 10 mg/kg, po measured for 120 to 150 mins relative to DOI; format: functional, organism-based; settings: dose 1-10 mg/kg, time lower […], time upper 150.0 min
[5] = AUCinf in male Sprague-Dawley rat CSF at 1 mg/kg, iv measured upto 8 hrs by LC-MS/MS analysis; format: ADME, organism-based, Cerebrospinal fluid
[6] = Volume of distribution at steady state in male Sprague-Dawley rat plasma at 1 mg/kg, iv measured upto 8 hrs by LC-MS/MS analysis; format: ADME, organism-based; settings: read-out: Vdss
[7] = test system: Mus musculus; test: Psychedelic effect in C57BL/6J mouse assessed as number of head-twitch responses by visual observation at 3 mg/kg, po measured for 3 mins at 5 to 25 min; format: functional; settings: 0.05 h
[8] = test system: Mus musculus; test: Locomotor activity in C57BL/6J mouse assessed as distance traveled at 3 mg/kg, sc measured for 15 to 25 mins (reference value: 1710 +/- 120 cm) by Ethovision tracking system; format: functional; settings: time 15-25 min
[9] = AUClast in Wistar rat brain at 5 mg/kg, po measured upto 48 hrs; format: ADME, organism-based
[10] = Metabolic stability in dog liver microsomes assessed as half life at 1 uM incubated for 120 mins in presence of NADPH; format: ADME, Canis lupus familiaris, Microsome
[11] = test system: Mus musculus; test: Psychedelic effect in C57BL/6J mouse assessed as number of head-twitch responses by visual observation at 3 mg/kg, po measured for 3 mins at 160 to 170 min; format: functional; settings: 0.05 h
[12] = target: T1, 5-hydroxytryptamine receptor 2B (Homo sapiens, UniProt P41595); test: Displacement of [3H]LSD from human 5-HT2B receptor expressed in HEK293 cell membrane incubated for 90 mins by microbeta liquid scintillation counting method; format: cell membranes
[13] = Metabolic stability in monkey liver S9 fractions assessed as half life; format: ADME, subcellular, Macaca fascicularis; settings: cynomolgus monkey, liver S9 fraction
[14] = test system: Mus musculus; test: Psychedelic effect in C57BL/6J mouse assessed as maximal number of 5-HT2A receptor dependent head-twitch responses by visual observation at 3 mg/kg, sc (reference value: 3); format: functional
[15] = Ex vivo binding in C57BL/6J mouse brain frontal cortex assessed as specific binding [3H]Cimbi-36 at 1 mg/kg, sc measured after 160 mins by liquid scintillation counting analysis (reference value: 1092 +/- 53); format: functional; settings: 2.667 h
[16] = AUCinf in male Sprague-Dawley rat plasma at 1 mg/kg, iv measured upto 8 hrs by LC-MS/MS analysis; format: ADME, organism-based
[17] = test system: Hippocampus; test: Induction of neuroplasticity in C57BL/6J mouse assessed as increase in SYN1 mRNA expression in brain hippocampus at 0.3 mg/kg, sc single dose by RT-PCR analysis; format: functional, organism-based
[18] = Volume of distribution in Wistar rat plasma at 1 mg/kg, iv measured upto 48 hrs; format: ADME, organism-based
[19] = Cmax in male Sprague-Dawley rat plasma at 1 mg/kg, iv measured upto 8 hrs by LC-MS/MS analysis; format: ADME, organism-based
[20] = test system: Mus musculus; test: Psychedelic effect in C57BL/6J mouse assessed as head-twitch responses reversibility by visual observation at 3 mg/kg, sc once a day for 3 days following treatment free for 48 hrs followed by redosed at 3 mg/kg, sc; format: functional, organism-based; settings: time 3.0 day
[21] = target: 5-hydroxytryptamine receptor 1B (Homo sapiens, UniProt P28222); test: Displacement of [3H]5-CT from 5-HT1B receptor (unknown origin) assessed as inhibition binding
[22] = Ex vivo binding in C57BL/6J mouse brain frontal cortex assessed as specific binding [3H]Cimbi-36 at 1 mg/kg, sc measured after 10 mins by liquid scintillation counting analysis (reference value: 1092 +/- 53); format: functional
[23] = target: T1, 5-hydroxytryptamine receptor 2B; test: Agonist activity at human 5-HT2B receptor expressed in CHO cells assessed as maximal IP2 production measured after 30 mins incubation by HTRF assay relative to control; format: functional, cell-based; settings: read-out: EC50
[24] = test system: Mus musculus; test: Induction of neuroplasticity in C57BL/6J mouse assessed as increase in EGR2 mRNA expression in brain frontal cortex at 0.3 mg/kg, sc single dose by RT-PCR analysis; format: functional, organism-based
[25] = Tmax in male Sprague-Dawley rat CSF at 1 mg/kg, iv measured upto 8 hrs by LC-MS/MS analysis; format: ADME, organism-based, Cerebrospinal fluid
[26] = test system: Hippocampus; test: Induction of neuroplasticity in C57BL/6J mouse assessed as increase in CREB1 mRNA expression in brain hippocampus at 0.3 mg/kg, sc single dose by RT-PCR analysis; format: functional, organism-based
[27] = Tmax in male Sprague-Dawley rat brain at 1 mg/kg, iv measured upto 8 hrs by LC-MS/MS analysis; format: ADME, organism-based
[28] = MRTinf in beagle dog at 0.4 mg/kg, iv measured upto 24 hrs; format: ADME, organism-based, Canis lupus familiaris; settings: in vivo
[29] = Cmax in mouse C57BL/6J brain at 3 mg/kg, po measured after 1 hrs; format: ADME, organism-based
[30] = test system: Mus musculus; test: Induction of neuroplasticity in C57BL/6J mouse assessed as increase in Homer1 mRNA expression in brain frontal cortex at 3 mg/kg, sc single dose by RT-PCR analysis; format: functional, organism-based
[31] = Volume of distribution at steady state in beagle dog at 0.4 mg/kg, iv measured upto 24 hrs; format: ADME, organism-based, Canis lupus familiaris; settings: in vivo, read-out: Vdss
[32] = MRTinf in male Sprague-Dawley rat brain at 1 mg/kg, iv measured upto 8 hrs by LC-MS/MS analysis; format: ADME, organism-based
[33] = test system: Mus musculus; test: Psychedelic effect in C57BL/6J mouse assessed as induction of 5-HT2A receptor dependent maximal head-twitch responses by visual observation at 1 mg/kg, sc at 40 mins post- administration; format: functional, organism-based
[34] = AUClast in Wistar rat plasma at 1 mg/kg, iv measured upto 48 hrs; format: ADME, organism-based
[35] = MRTlast in Wistar rat brain at 1 mg/kg, iv measured upto 48 hrs; format: ADME, organism-based
[36] = AUCinf in male Sprague-Dawley rat brain at 1 mg/kg, iv measured upto 8 hrs by LC-MS/MS analysis; format: ADME, organism-based

T1 sequence (P41595 whole entry): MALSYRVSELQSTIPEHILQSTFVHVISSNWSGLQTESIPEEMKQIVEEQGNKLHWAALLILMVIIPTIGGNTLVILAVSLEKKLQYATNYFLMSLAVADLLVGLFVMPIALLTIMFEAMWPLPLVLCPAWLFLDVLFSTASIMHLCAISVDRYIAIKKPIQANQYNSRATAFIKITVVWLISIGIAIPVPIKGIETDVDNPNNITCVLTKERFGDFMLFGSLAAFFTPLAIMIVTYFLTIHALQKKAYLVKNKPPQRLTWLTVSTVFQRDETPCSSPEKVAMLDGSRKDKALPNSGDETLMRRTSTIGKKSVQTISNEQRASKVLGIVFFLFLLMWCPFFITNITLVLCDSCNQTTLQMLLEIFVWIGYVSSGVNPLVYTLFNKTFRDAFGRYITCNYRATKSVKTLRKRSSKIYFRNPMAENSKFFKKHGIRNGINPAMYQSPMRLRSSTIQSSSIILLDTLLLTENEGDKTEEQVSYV
Chain of 5-hydroxytryptamine receptor 1B (P28222 whole entry): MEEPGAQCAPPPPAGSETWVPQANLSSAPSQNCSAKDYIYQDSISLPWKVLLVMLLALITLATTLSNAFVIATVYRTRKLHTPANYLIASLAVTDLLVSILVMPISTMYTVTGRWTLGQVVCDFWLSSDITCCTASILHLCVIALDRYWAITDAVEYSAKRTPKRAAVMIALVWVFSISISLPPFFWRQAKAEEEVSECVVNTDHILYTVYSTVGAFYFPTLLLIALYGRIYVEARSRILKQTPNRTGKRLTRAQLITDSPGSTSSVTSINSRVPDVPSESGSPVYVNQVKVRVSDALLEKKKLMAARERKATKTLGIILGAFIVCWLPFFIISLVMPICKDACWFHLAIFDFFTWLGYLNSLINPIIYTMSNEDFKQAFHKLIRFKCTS
Chain of 5-hydroxytryptamine receptor 1A (P08908 whole entry): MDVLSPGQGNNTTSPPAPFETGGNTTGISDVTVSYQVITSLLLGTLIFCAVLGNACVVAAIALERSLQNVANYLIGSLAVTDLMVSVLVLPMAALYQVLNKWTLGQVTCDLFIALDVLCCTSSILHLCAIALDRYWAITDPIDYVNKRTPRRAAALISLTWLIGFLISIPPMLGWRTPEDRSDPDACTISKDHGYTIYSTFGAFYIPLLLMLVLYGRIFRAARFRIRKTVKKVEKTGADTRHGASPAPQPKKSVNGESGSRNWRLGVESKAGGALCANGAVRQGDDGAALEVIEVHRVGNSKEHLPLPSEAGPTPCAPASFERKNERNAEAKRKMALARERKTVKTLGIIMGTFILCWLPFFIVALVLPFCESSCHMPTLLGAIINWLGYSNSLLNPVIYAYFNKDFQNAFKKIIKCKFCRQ

COc1cc([Se]C(F)(F)F)c(OC)cc1CCN.Cl
Kp at 8 h [1]: 15.6 | AUC(0-inf) [2]: 49.7 ng·h/mL | Ki [3]: 32 nM | Activity [4]: Active | AUC(0-inf) [5]: 51.4 ng·h/mL | Vd [6]: 5.67 L/kg | Activity [7]: 25 | Activity [8]: 2446 cm | AUC(0-t) at 48 h [9]: 1860 ng·h/mL | half-life at 1 µM [10]: > 2 h | Activity [11]: 29 | Ki [12]: 14 nM | half-life [13]: 0.633 h | Activity [14]: 23 | Activity [15]: 736 | AUC(0-inf) [16]: 210 ng·h/mL | Activity [17]: inactive | Vd [18]: 22.2 L/kg | Cmax [19]: 250 ng/mL | Activity [20]: Active | Ki [21]: 949 nM | Activity [22]: 993 | EC50 [23]: 7.3 nM | Activity [24]: Active | Tmax [25]: 4.98 min | Activity [26]: inactive | Tmax [27]: 0.25 h | MRT inf [28]: 5.58 h | Cmax [29]: 2370 ng/g | Activity [30]: Active | Vd [31]: 5.29 L/kg | MRT inf [32]: 1.98 h | Activity [33]: Active | AUC(0-t) at 48 h [34]: 42.2 ng·h/mL | MRT last at 48 h [35]: 2.54 h | AUC(0-inf) [36]: 3280 ng·h/mL
